Data: the NIST ThermoML archive (doi:10.1021/je400055v)
Numbers after ± are expanded uncertainties.

Assay: xn = mol fraction of the nth substance listed
Conditions: Liquid, Vibrating tube method

CCCCCCCCCCC [undecane] + CCCCCCC
Conditions | mass density [kg/m3]
352.96 K, 20000 kPa, x2 = 0.05 | 712.1 ± 0.4
352.96 K, 20000 kPa, x2 = 0.5063 | 690.9 ± 0.4
352.96 K, 21000 kPa, x2 = 0.05 | 712.9 ± 0.4
352.96 K, 21001 kPa, x2 = 0.5063 | 691.8 ± 0.4
352.96 K, 22001 kPa, x2 = 0.05 | 713.8 ± 0.4
352.96 K, 22050 kPa, x2 = 0.5063 | 692.7 ± 0.4
352.96 K, 23000 kPa, x2 = 0.05 | 714.6 ± 0.4
352.96 K, 23000 kPa, x2 = 0.5063 | 693.6 ± 0.4
352.96 K, 24000 kPa, x2 = 0.05 | 715.4 ± 0.4
352.96 K, 24000 kPa, x2 = 0.5063 | 694.5 ± 0.5
352.96 K, 25000 kPa, x2 = 0.05 | 716.2 ± 0.4
352.96 K, 25000 kPa, x2 = 0.5063 | 695.3 ± 0.5
352.97 K, 1000 kPa, x2 = 0.7482 | 654 ± 0.3
352.97 K, 2000 kPa, x2 = 0.7482 | 655.3 ± 0.3
352.97 K, 3000 kPa, x2 = 0.7482 | 656.6 ± 0.3
352.97 K, 4000 kPa, x2 = 0.7482 | 657.8 ± 0.3
352.97 K, 5000 kPa, x2 = 0.7482 | 659.1 ± 0.3
352.97 K, 6000 kPa, x2 = 0.7482 | 660.3 ± 0.3
352.97 K, 7000 kPa, x2 = 0.7482 | 661.5 ± 0.3
352.97 K, 8000 kPa, x2 = 0.7482 | 662.7 ± 0.3
352.97 K, 9000 kPa, x2 = 0.7482 | 663.9 ± 0.3
352.97 K, 10000 kPa, x2 = 0.7482 | 665 ± 0.3
352.97 K, 11000 kPa, x2 = 0.7482 | 666.1 ± 0.4
352.97 K, 12000 kPa, x2 = 0.7482 | 667.2 ± 0.4
352.97 K, 13000 kPa, x2 = 0.7482 | 668.3 ± 0.4
352.97 K, 14000 kPa, x2 = 0.7482 | 669.4 ± 0.4
352.97 K, 15000 kPa, x2 = 0.7482 | 670.5 ± 0.4
352.97 K, 16000 kPa, x2 = 0.7482 | 671.5 ± 0.4
352.97 K, 17000 kPa, x2 = 0.7482 | 672.5 ± 0.4
352.97 K, 18000 kPa, x2 = 0.7482 | 673.5 ± 0.4
352.97 K, 19000 kPa, x2 = 0.7482 | 674.5 ± 0.4
352.97 K, 20000 kPa, x2 = 0.7482 | 675.5 ± 0.4
352.97 K, 21000 kPa, x2 = 0.7482 | 676.5 ± 0.4
352.97 K, 22000 kPa, x2 = 0.7482 | 677.4 ± 0.5
352.97 K, 23000 kPa, x2 = 0.7482 | 678.3 ± 0.5
352.97 K, 24000 kPa, x2 = 0.7482 | 679.2 ± 0.5
352.97 K, 25000 kPa, x2 = 0.7482 | 680.2 ± 0.5
352.99 K, 1015 kPa, x2 = 0.2346 | 685.9 ± 0.3
352.99 K, 2016 kPa, x2 = 0.2346 | 687 ± 0.3
352.99 K, 3016 kPa, x2 = 0.2346 | 688.1 ± 0.3
352.99 K, 4017 kPa, x2 = 0.2346 | 689.2 ± 0.3
352.99 K, 5018 kPa, x2 = 0.2346 | 690.2 ± 0.3
352.99 K, 6019 kPa, x2 = 0.2346 | 691.3 ± 0.3
352.99 K, 7020 kPa, x2 = 0.2346 | 692.3 ± 0.3
352.99 K, 8020 kPa, x2 = 0.2346 | 693.3 ± 0.3
352.99 K, 9021 kPa, x2 = 0.2346 | 694.4 ± 0.3
352.99 K, 10022 kPa, x2 = 0.2346 | 695.3 ± 0.3
352.99 K, 11022 kPa, x2 = 0.2346 | 696.3 ± 0.3
352.99 K, 12023 kPa, x2 = 0.2346 | 697.3 ± 0.3
352.99 K, 13024 kPa, x2 = 0.2346 | 698.2 ± 0.4
352.99 K, 14025 kPa, x2 = 0.2346 | 699.2 ± 0.4
352.99 K, 15026 kPa, x2 = 0.2346 | 700.1 ± 0.4
352.99 K, 16027 kPa, x2 = 0.2346 | 701 ± 0.4
352.99 K, 17028 kPa, x2 = 0.2346 | 701.9 ± 0.4
352.99 K, 18030 kPa, x2 = 0.2346 | 702.8 ± 0.4
352.99 K, 19030 kPa, x2 = 0.2346 | 703.7 ± 0.4
352.99 K, 20031 kPa, x2 = 0.2346 | 704.5 ± 0.4
352.99 K, 21066 kPa, x2 = 0.2346 | 705.4 ± 0.4
352.99 K, 22068 kPa, x2 = 0.2346 | 706.3 ± 0.4
352.99 K, 23071 kPa, x2 = 0.2346 | 707.1 ± 0.4
352.99 K, 24073 kPa, x2 = 0.2346 | 707.9 ± 0.4
352.99 K, 25076 kPa, x2 = 0.2346 | 708.7 ± 0.4
362.87 K, 1001 kPa, x2 = 0.9511 | 628.1 ± 0.3
362.87 K, 2000 kPa, x2 = 0.9511 | 629.7 ± 0.3
362.87 K, 3000 kPa, x2 = 0.9511 | 631.1 ± 0.3
362.87 K, 4000 kPa, x2 = 0.9511 | 632.6 ± 0.3
362.87 K, 5000 kPa, x2 = 0.9511 | 634 ± 0.3
362.87 K, 6000 kPa, x2 = 0.9511 | 635.4 ± 0.3
362.87 K, 7000 kPa, x2 = 0.9511 | 636.8 ± 0.3
362.87 K, 8000 kPa, x2 = 0.9511 | 638.2 ± 0.3
362.87 K, 9000 kPa, x2 = 0.9511 | 639.5 ± 0.4
362.87 K, 10000 kPa, x2 = 0.9511 | 640.8 ± 0.4
362.87 K, 11000 kPa, x2 = 0.9511 | 642.1 ± 0.4
362.87 K, 12000 kPa, x2 = 0.9511 | 643.4 ± 0.4
362.87 K, 13000 kPa, x2 = 0.9511 | 644.6 ± 0.4
362.87 K, 14001 kPa, x2 = 0.9511 | 645.8 ± 0.4
362.87 K, 15001 kPa, x2 = 0.9511 | 647 ± 0.4
362.87 K, 16000 kPa, x2 = 0.9511 | 648.2 ± 0.4
362.87 K, 17001 kPa, x2 = 0.9511 | 649.3 ± 0.4
362.87 K, 18001 kPa, x2 = 0.9511 | 650.5 ± 0.4
362.87 K, 19000 kPa, x2 = 0.9511 | 651.6 ± 0.4
362.87 K, 20000 kPa, x2 = 0.9511 | 652.7 ± 0.5
362.87 K, 21001 kPa, x2 = 0.9511 | 653.8 ± 0.5
362.87 K, 22000 kPa, x2 = 0.9511 | 654.9 ± 0.5
362.87 K, 23001 kPa, x2 = 0.9511 | 655.9 ± 0.5
362.87 K, 24000 kPa, x2 = 0.9511 | 656.9 ± 0.5
362.87 K, 25000 kPa, x2 = 0.9511 | 658 ± 0.5
362.91 K, 1000 kPa, x2 = 0.7482 | 645.5 ± 0.3
362.91 K, 1023 kPa, x2 = 0.2346 | 678.2 ± 0.3
362.91 K, 2000 kPa, x2 = 0.7482 | 646.9 ± 0.3
362.91 K, 2024 kPa, x2 = 0.2346 | 679.4 ± 0.3
362.91 K, 3000 kPa, x2 = 0.7482 | 648.3 ± 0.3
362.91 K, 3026 kPa, x2 = 0.2346 | 680.6 ± 0.3
